The target of test [1] is human JAK2 (Homo sapiens (Human), UniProt O60674). As to conditions: read-out: JAK2 IC50.
Test [2] concerns the target human FAK (Homo sapiens (Human), UniProt Q05397). The settings on record: read-out: FAK IC50.

Sequence of human FAK (Q05397 whole entry): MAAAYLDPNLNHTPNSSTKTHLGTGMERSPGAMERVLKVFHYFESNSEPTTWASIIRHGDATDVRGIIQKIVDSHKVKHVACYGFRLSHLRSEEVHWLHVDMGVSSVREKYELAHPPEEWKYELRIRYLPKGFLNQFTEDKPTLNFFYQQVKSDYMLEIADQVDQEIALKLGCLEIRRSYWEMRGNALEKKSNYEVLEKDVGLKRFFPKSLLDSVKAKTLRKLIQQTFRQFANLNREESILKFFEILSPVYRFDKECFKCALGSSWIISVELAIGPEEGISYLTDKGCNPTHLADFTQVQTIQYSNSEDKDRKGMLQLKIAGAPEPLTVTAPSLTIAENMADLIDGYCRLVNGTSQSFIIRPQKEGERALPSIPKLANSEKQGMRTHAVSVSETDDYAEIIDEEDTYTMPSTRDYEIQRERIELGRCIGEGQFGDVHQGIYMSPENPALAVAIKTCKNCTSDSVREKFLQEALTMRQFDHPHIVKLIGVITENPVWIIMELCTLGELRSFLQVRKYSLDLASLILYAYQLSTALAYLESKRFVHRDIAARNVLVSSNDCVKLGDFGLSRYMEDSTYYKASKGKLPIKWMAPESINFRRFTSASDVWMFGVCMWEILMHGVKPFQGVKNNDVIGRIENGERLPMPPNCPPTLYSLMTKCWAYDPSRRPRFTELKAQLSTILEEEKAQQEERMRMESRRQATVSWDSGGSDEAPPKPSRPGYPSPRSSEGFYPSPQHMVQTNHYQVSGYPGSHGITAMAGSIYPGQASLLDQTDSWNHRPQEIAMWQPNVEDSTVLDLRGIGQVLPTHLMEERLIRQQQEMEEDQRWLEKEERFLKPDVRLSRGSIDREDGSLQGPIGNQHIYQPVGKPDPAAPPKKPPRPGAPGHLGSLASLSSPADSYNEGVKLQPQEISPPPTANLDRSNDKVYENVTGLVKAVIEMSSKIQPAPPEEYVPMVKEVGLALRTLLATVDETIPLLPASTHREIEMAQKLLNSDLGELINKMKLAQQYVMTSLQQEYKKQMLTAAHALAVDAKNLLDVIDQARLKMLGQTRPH
Sequence of human JAK2 (O60674 815-1132): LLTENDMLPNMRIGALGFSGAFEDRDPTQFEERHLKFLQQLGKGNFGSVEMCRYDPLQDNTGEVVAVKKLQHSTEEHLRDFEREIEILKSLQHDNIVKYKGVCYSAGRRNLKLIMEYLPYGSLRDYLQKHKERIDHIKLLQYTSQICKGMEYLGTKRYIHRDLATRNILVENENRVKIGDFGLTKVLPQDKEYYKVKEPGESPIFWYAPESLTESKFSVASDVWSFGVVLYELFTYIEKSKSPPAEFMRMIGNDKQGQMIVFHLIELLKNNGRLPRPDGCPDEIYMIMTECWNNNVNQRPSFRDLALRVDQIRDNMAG

As usually defined, the IC50 is the concentration that inhibits the measured activity by half. For the compound `CN1CCN(c2cccc(Nc3nc4cccc(-c5ccc(S(C)(=O)=O)cc5)n4n3)c2)CC1` [Example 92, [5-(4-Methanesulfonyl-phenyl)-[1,2,4]triazolo[1,5-a]pyridin-2-yl]-[3-(4-methyl-piperazin-1-yl)-phenyl]-amine], the half-maximal inhibitory concentration (IC50) in test [1] came to 2.8 nM; in test [2], 1270 nM.

Regarding `CS(=O)(=O)c1ccc(-c2cccc3nc(Nc4cccc(S(C)(=O)=O)c4)nn23)cc1` [Example 94, (3-Methanesulfonyl-phenyl)-[5-(4-methanesulfonyl-phenyl)-[1,2,4]triazolo[1,5-a]pyridin-2-yl]-amine], the concentration for half-maximal inhibition (IC50) in test [1] worked out at 9.3 nM; in test [2] it was 3000 nM.

`COc1ccc(Nc2nc3cccc(-c4ccc(CN5CCS(=O)(=O)CC5)cc4)n3n2)cc1` [Example 95, 5-{4-[(1,1-dioxidothiomorpholin-4-yl)methyl]phenyl}-N-(4-methoxyphenyl)[1,2,4]triazolo[1,5-a]pyridin-2-amine]: the IC50 is 1 nM in test [1] and 2000 nM in test [2].

Consider `CN1CCN(c2ccc(Nc3nc4c(-c5ccc(S(C)(=O)=O)cc5)cc(C(F)(F)F)cn4n3)cn2)CC1` [Example 104, [8-(4-Methanesulfonyl-phenyl)-6-trifluoromethyl-[1,2,4]triazolo[1,5-a]pyridin-2-yl]-[6-(4-methyl-piperazin-1-yl)-pyridin-3-yl]-amine], for which the IC50 in test [1] came out at 928 nM; in test [2], 669 nM.

As to `CN1CCN(c2cccc(N(c3cccc(N4CCN(C)CC4)c3)c3nc4c(-c5ccc(S(C)(=O)=O)cc5)cc(F)cn4n3)c2)CC1` [Example 105, [6-Fluoro-8-(4-methanesulfonyl-phenyl)-[1,2,4]triazolo[1,5-a]pyridin-2-yl]-bis-[3-(4-methyl-piperazin-1-yl)-phenyl]-amine], the IC50 worked out at 324 nM in test [1] and 1050 nM in test [2].

Consider `CN1CCN(c2ccc(Nc3nc4c(-c5ccc(S(C)(=O)=O)cc5)cc(F)cn4n3)cc2)CC1` [Example 106, [6-Fluoro-8-(4-methanesulfonyl-phenyl)-[1,2,4]triazolo[1,5-a]pyridin-2-yl]-[4-(4-methyl-piperazin-1-yl)-phenyl]-amine], for which the results for the half-inhibitory concentration (IC50) in test [1] and in test [2] were 31.6 nM and 3000 nM, respectively.

As to `CN1CCN(c2cccc(Nc3nc4cncc(-c5ccc(S(C)(=O)=O)cc5)n4n3)c2)CC1` [Example 107, [5-(4-Methanesulfonyl-phenyl)-[1,2,4]triazolo[1,5-a]pyrazin-2-yl]-[3-(4-methyl-piperazin-1-yl)-phenyl]-amine], the IC50 in test [1] was determined as 307 nM; in test [2], 855 nM.

For the compound `CN1CCN(c2cccc(Nc3nc4c(Nc5cccc(S(C)(=O)=O)c5)cccn4n3)c2)CC1` [Example 110, N(8)-(3-Methanesulfonyl-phenyl)-N(2)-[3-(4-methyl-piperazin-1-yl)-phenyl]-[1,2,4]triazolo[1,5-a]pyridine-2,8-diamine], the IC50 amounted to 1310 nM in test [1] and 3000 nM in test [2].

`CN1CCN(c2cccc(Nc3nc4c(Nc5cccnc5N(C)S(C)(=O)=O)cccn4n3)c2)CC1` [Example 111, N-Methyl-N-(3-{2-[3-(4-methyl-piperazin-1-yl)-phenylamino]-[1,2,4]triazolo[1,5-a]pyridin-8-ylamino}-pyridin-2-yl)-methanesulfonamide]: the IC50 in test [1] is 60.3 nM; in test [2], 2000 nM.

`CS(=O)(=O)c1ccc(Nc2nc3c(-c4ccc(S(C)(=O)=O)cc4)cccn3n2)cc1` [Example 112, (4-Methanesulfonyl-phenyl)-[8-(4-methanesulfonyl-phenyl)-[1,2,4]triazolo[1,5-a]pyridin-2-yl]-amine]: the half-maximal inhibitory concentration (IC50) in test [1] stood at 1.3 nM; in test [2], 531 nM.

For the compound `CS(=O)(=O)c1ccc(-c2cccn3nc(Nc4cccc(S(C)(=O)=O)c4)nc23)cc1` [Example 113, (3-Methanesulfonyl-phenyl)-[8-(4-methanesulfonyl-phenyl)-[1,2,4]triazolo[1,5-a]pyridin-2-yl]-amine], the half-maximal inhibitory concentration (IC50) came to 5.57 nM in test [1] and 693 nM in test [2].

As to `CS(=O)(=O)c1ccc(-c2cccn3nc(Nc4ccc(CN5CCS(=O)(=O)CC5)cc4)nc23)cc1` [Example 114, N-{4-[(1,1-dioxidothiomorpholin-4-yl)methyl]phenyl}-8-[4-(methylsulfonyl)phenyl][1,2,4]triazolo[1,5-a]pyridin-2-amine], the 50% inhibitory concentration (IC50) in test [1] was found to be 0.75 nM; in test [2] it was 1480 nM.

Take `CS(=O)(=O)c1ccc(-c2cccc3nc(Nc4ccc(CN5CCS(=O)(=O)CC5)cc4)nn23)cc1` [Example 115, N-{4-[(1,1-dioxidothiomorpholin-4-yl)methyl]phenyl}-5-[4-(methylsulfonyl)phenyl][1,2,4]triazolo[1,5-a]pyridin-2-amine]: the 50% inhibitory concentration (IC50) in test [1] was found to be 0.66 nM; in test [2], 1050 nM.

Turning to `CN1CCN(Cc2cccc(Nc3nc4c(-c5ccc(S(C)(=O)=O)cc5)cccn4n3)c2)CC1` [Example 116, [8-(4-Methanesulfonyl-phenyl)-[1,2,4]triazolo[1,5-a]pyridin-2-yl]-[3-(4-methyl-piperazin-1-ylmethyl)-phenyl]-amine], the 50% inhibitory concentration (IC50) in test [1] amounted to 3.07 nM; in test [2], 3000 nM.

Turning to `CS(=O)(=O)c1ccc(-c2cccc3nc(Nc4cccc(CN5CCOCC5)c4)nn23)cc1` [Example 117, [5-(4-Methanesulfonyl-phenyl)-[1,2,4]triazolo[1,5-a]pyridin-2-yl]-(3-morpholin-4-ylmethyl-phenyl)-amine], the IC50 in test [1] turned out to be 0.95 nM; in test [2], 1470 nM.

Consider `CN1CCN(Cc2cccc(Nc3nc4cccc(-c5ccc(S(C)(=O)=O)cc5)n4n3)c2)CC1` [Example 118, [5-(4-Methanesulfonyl-phenyl)-[1,2,4]triazolo[1,5-a]pyridin-2-yl]-[3-(4-methyl-piperazin-1-ylmethyl)-phenyl]-amine], for which the figures for the IC50 in test [1] and in test [2] were 1.43 nM and 2860 nM, respectively.

For the compound `CN(c1ccc(-c2cccn3nc(Nc4ccc(CN5CCS(=O)(=O)CC5)cc4)nc23)cc1)S(C)(=O)=O` [Example 119, N-{4-[2-({4-[(1,1-dioxidothiomorpholin-4-yl)methyl]phenyl}amino)[1,2,4]triazolo[1,5-a]pyridin-8-yl]phenyl}-N-methylmethanesulfonamide], the 50% inhibitory concentration (IC50) in test [1] worked out at 0.27 nM; in test [2] it was 10000 nM.

On to `CS(=O)(=O)c1ccc(-c2cccn3nc(Nc4cccc(CN5CCS(=O)(=O)CC5)c4)nc23)cc1` [Example 120, N-{3-[(1,1-dioxidothiomorpholin-4-yl)methyl]phenyl}-8-[4-(methylsulfonyl)phenyl][1,2,4]triazolo[1,5-a]pyridin-2-amine], for which the figures for the IC50 in test [1] and in test [2] were 0.67 nM and 2000 nM, respectively.

For `CS(=O)(=O)c1ccc(-c2cccc3nc(Nc4cccc(CN5CCS(=O)(=O)CC5)c4)nn23)cc1` [Example 121, N-{3-[(1,1-dioxidothiomorpholin-4-yl)methyl]phenyl}-5-[4-(methylsulfonyl)phenyl][1,2,4]triazolo[1,5-a]pyridin-2-amine], the figures for the IC50 in test [1] and in test [2] were 0.55 nM and 999 nM, respectively.

As for `CN1CCN(c2ccc(Nc3nc4c(NCc5cccnc5N(C)S(C)(=O)=O)cccn4n3)cc2)CC1` [Example 122, N-Methyl-N-[3-({2-[4-(4-methyl-piperazin-1-yl)-phenylamino]-[1,2,4]triazolo[1,5-a]pyridin-8-ylamino}-methyl)-pyridin-2-yl]-methanesulfonamide], the IC50 worked out at 20.7 nM in test [1] and 30 nM in test [2].

Take `CN1CCC(c2ccc(Nc3nc4c(NCc5cccnc5N(C)S(C)(=O)=O)cccn4n3)cc2)CC1` [Example 123, N-Methyl-N-[3-({2-[4-(1-methyl-piperidin-4-yl)-phenylamino]-[1,2,4]triazolo[1,5-a]pyridin-8-ylamino}-methyl)-pyridin-2-yl]-methanesulfonamide]: the IC50 was 40.3 nM in test [1] and 77.3 nM in test [2].

On to `CN(c1ncccc1CNc1cccn2nc(Nc3ccc(OCCN4CCCC4)cc3)nc12)S(C)(=O)=O` [Example 124, N-Methyl-N-[3-({2-[4-(2-pyrrolidin-1-yl-ethoxy)-phenylamino]-[1,2,4]triazolo[1,5-a]pyridin-8-ylamino}-methyl)-pyridin-2-yl]-methanesulfonamide], for which the IC50 in test [1] worked out at 41.2 nM; in test [2], 59.7 nM.

With `CN1CCC(c2ccc(Nc3nc4c(Nc5ccccc5S(C)(=O)=O)cccn4n3)cc2)CC1` [Example 125, N(8)-(2-Methanesulfonyl-phenyl)-N(2)-[4-(1-methyl-piperidin-4-yl)-phenyl]-[1,2,4]triazolo[1,5-a]pyridine-2,8-diamine], the half-maximal inhibitory concentration (IC50) in test [1] is 6.6 nM; in test [2], 2050 nM.

`CS(=O)(=O)c1ccccc1Nc1cccn2nc(Nc3ccc(OCCN4CCCC4)cc3)nc12` [Example 126, N(8)-(2-Methanesulfonyl-phenyl)-N(2)-[4-(2-pyrrolidin-1-yl-ethoxy)-phenyl]-[1,2,4]triazolo[1,5-a]pyridine-2,8-diamine]: the IC50 in test [1] was found to be 14.3 nM; in test [2], 1300 nM.

In the case of `CN(c1cccc(-c2cccn3nc(Nc4ccc(OCCN5CCCC5)cc4)nc23)c1)S(C)(=O)=O` [Example 128, N-Methyl-N-(3-{2-[4-(2-pyrrolidin-1-yl-ethoxy)-phenylamino]-[1,2,4]triazolo[1,5-a]pyridin-8-yl}-phenyl)-methanesulfonamide], the half-maximal inhibitory concentration (IC50) was determined as 34 nM in test [1] and 2310 nM in test [2].

Turning to `CN1CCC(c2cccc(Nc3nc4c(-c5cccc(N(C)S(C)(=O)=O)c5)cccn4n3)c2)CC1` [Example 129, N-Methyl-N-(3-{2-[3-(1-methyl-piperidin-4-yl)-phenylamino]-[1,2,4]triazolo[1,5-a]pyridin-8-yl}-phenyl)-methanesulfonamide], the IC50 in test [1] was 8.88 nM; in test [2], 759 nM.

As to `CN1CCC(c2cccc(Nc3nc4c(-c5ccccc5N(C)S(C)(=O)=O)cccn4n3)c2)CC1` [Example 130, N-Methyl-N-(2-{2-[3-(1-methyl-piperidin-4-yl)-phenylamino]-[1,2,4]triazolo[1,5-a]pyridin-8-yl}-phenyl)-methanesulfonamide], the IC50 in test [1] was determined as 1200 nM; in test [2], 3000 nM.

(Values after US8501936B2 (priority 2009, dated 2013).)
